Experiment [1] has as its target T1, c-Met (Homo sapiens, UniProt P08581). Kind of experiment: Cell based ELISA assay for HGF stimulated c-Met phosphorylation in S114 cells. The settings on record: read-out: c-Met Cell ELISA IC-50. More on the design: expressed in transfected cells; host or cells: S114 (murine NIH 3T3 derived). Here is the method: A cell based ELISA assay was developed to evaluate the ability of compounds to inhibit HGF stimulated c-Met phosphorylation in cells.
S114 cells were seeded to a 96 well tissue culture treated dish at a concentration of 5×10^4 per well. After a 16-20 hour incubation, culture medium was removed and replaced with serum free medium supplemented with 0.5% BSA. Test compound was then added and incubated with the cells for 60 minutes, followed by the addition of 1 μl HGF at […] for 15 minutes. […] Following another 1 hour incubation at room temperature the plates were washed three times with Delfia wash buffer (Perkin Elmer). After the final wash, […] of Delfia enhancer solution (Perkin Elmer) was added and allowed to incubate for 60 minutes. Plates were read on an LJL Analyst instrument (Molecular Devices; Sunnyvale, Calif.) with filter settings of 360 excitation, 620 emission, and 410 dichroic. IC50 values were calculated using Graphpad Prism software (Graphpad Software; San Diego, Calif.).
On the technique in general: In an ELISA, binding on a coated surface is turned into a signal by an enzyme label.
Target sequence in this assay (P08581 25-1390): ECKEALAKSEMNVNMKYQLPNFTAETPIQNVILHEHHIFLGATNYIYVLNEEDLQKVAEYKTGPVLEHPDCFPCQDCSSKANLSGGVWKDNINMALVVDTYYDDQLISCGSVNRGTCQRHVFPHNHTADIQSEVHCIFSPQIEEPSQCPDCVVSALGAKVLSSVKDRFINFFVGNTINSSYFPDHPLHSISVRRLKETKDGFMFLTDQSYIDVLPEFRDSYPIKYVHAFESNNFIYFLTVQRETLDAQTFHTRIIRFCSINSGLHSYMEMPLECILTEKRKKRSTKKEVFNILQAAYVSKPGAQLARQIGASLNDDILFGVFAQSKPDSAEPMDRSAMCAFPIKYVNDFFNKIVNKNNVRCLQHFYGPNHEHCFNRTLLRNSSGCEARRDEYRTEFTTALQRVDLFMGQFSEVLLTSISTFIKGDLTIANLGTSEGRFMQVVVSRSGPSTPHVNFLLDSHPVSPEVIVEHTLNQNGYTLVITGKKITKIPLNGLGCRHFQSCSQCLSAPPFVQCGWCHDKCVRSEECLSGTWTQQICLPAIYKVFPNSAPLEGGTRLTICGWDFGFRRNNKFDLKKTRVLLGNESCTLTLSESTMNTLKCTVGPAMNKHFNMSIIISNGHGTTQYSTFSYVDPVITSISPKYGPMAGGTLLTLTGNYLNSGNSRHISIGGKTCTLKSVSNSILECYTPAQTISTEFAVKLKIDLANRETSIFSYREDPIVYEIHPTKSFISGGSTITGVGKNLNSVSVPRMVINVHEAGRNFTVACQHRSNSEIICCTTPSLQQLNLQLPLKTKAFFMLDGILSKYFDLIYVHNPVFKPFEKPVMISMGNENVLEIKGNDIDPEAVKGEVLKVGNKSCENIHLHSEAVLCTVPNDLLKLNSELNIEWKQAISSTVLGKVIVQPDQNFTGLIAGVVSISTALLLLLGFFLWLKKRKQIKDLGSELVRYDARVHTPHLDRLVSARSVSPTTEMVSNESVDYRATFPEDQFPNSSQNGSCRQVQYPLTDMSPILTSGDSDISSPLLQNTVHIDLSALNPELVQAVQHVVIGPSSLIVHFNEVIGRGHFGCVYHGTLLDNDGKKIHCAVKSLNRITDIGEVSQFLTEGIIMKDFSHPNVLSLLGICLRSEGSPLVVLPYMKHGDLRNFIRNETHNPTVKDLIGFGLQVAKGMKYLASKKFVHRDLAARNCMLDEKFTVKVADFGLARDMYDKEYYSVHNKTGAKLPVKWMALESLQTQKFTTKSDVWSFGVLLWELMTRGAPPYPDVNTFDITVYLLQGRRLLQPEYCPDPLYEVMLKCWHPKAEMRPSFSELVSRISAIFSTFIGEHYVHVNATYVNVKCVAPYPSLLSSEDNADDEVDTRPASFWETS

The target of experiment [2] is T1, c-Met. Kind of experiment: Delfia autophosphorylation kinase assay on the c-Met. The experiment is classed as biochemical. More on the design: The purified His6 tagged cytoplasmic domain of c-Met was diluted to a concentration of 500 ng/ml; host or cells: Sf9 insect cells (baculovirus, pFastBacHTa). Conditions: His6 tagged cytoplasmic domain of c-Met, 1 μM ATP; read-out: cMet Delfia autophos IC-50. Here is the method: A DELFIA time resolved fluorescence assay was developed for screening of compounds that decreases the autophosphorylation thus the kinase activity of c-Met. The DELFIA assay is non-radioactive. The autophosphorylation of the c-Met is measured by an anti-phosphotyrosine antibody coupled to an Europium tag.
A major advantage of this format is that it allowed for the development of an autophosphorylation assay using Ni-chelate plates which bind the hexa-his tag on the recombinant Met kinase. The autophosphorylation assay allows one to use a known substrate, Met kinase itself, for the phosphorylation.
The assay procedure for screening is as follows. The purified His6 tagged cytoplasmic domain of c-Met was diluted to a concentration of 500 ng/ml in enzyme dilution buffer (50 mM Tris-HCl, pH8.0, 0.1% BSA) and dispensed to assay plates at a volume of 50 μl per well. Black opaque HisGrab Nickel coated 96 well plates (Pierce, Rockford, Ill.) were selected for use. Next, 2.5 μl of compound in 40% DMSO was added to test wells, 2.5 μl of 40% DMSO only was added to the negative control wells. The autophosphorylation reaction was initiated upon the addition of 50 μl of reaction buffer, 50 mM Tris-HCl, pH 8.0, 10 mM MgCl2, 0.1 mM Na3VO4, 1 mM DTT, 1 μM ATP. Plates were incubated at room temperature for 1 hour followed by 2 washes with 200 μl/well of PBS. Europium conjugated anti-phosphotyrosine antibody, Eu-PY20 from Perkin Elmer was diluted to 50 ng/ml in Delfia AB buffer (Perkin Elmer, Boston, Mass.), added to the 96 well assay plates at a volume of 100 μl/well, and incubated at room temperature for 2 hours. Assay plates were then washed 4 times each with 200 μl/well of Delfia wash buffer (Perkin Elmer). After the final wash 150 μl of Delfia Enhancement solution (Perkin Elmer) was added to each well of the assay plate and incubated at room temperature for 1 hour. Plates were read on an LJL Analyst instrument (Molecular Devices; Sunnyvale, Calif.) with filter settings of 360 excitation, 620 emission, and 410 dichroic. IC50 values were calculated using Graphpad Prism software (Graphpad Software; San Diego, Calif.).
Target sequence in this assay (P08581 956-1390 limits assumed): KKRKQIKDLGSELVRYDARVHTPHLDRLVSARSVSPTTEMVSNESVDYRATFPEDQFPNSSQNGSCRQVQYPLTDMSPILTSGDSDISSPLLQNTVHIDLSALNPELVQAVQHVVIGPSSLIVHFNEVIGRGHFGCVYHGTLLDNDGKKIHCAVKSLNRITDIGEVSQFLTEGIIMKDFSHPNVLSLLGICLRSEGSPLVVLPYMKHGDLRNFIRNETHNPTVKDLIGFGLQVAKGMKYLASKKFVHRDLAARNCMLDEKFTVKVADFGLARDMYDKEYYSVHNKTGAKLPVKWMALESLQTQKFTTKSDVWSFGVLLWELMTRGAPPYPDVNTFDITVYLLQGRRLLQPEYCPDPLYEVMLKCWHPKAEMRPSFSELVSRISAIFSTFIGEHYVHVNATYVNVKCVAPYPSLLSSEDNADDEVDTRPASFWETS

For `CCOC(=O)c1ccc(-c2ccc3nnc(Cc4ccc(O)cc4)n3n2)s1` [Example 48, 5-[3-(4-Hydroxy-benzyl)-[1,2,4]triazolo[4,3-b]pyridazin-6-yl]-thiophene-2-carboxylic acid ethyl ester], the values for the IC50 at c-Met [1] and on c-Met [2] were 14 nM and 2 nM, respectively.
Take `CN(C)CCCNC(=O)c1ccc(-c2ccc3nnc(Cc4ccc(O)cc4)n3n2)s1` [Example 49, 5-[3-(4-Hydroxy-benzyl)-[1,2,4]triazolo[4,3-b]pyridazin-6-yl]-thiophene-2-carboxylic acid (3-dimethylamino-propyl)-amide]: the IC50 at c-Met [1] amounted to 343 nM; at c-Met [2] it was 2.1 nM.
Turning to `CN1CCN(C(=O)c2ccc(-c3ccc4nnc(Cc5ccc6c(c5)CCO6)n4n3)s2)CC1` [Example 50, {5-[3-(2,3-Dihydro-benzofuran-5-ylmethyl)-[1,2,4]triazolo[4,3-b]pyridazin-6-yl]-thiophen-2-yl}-(4-methyl-piperazin-1-yl)-methanone], the IC50 was found to be 12 nM at c-Met [1] and 2 nM at c-Met [2].
The like results for `COCCN(CCOC)C(=O)c1ccc(-c2ccc3nnc(Cc4ccc5c(c4)CCO5)n3n2)s1` [Example 51, 5-[3-(2,3-Dihydro-benzofuran-5-ylmethyl)-[1,2,4]triazolo[4,3-b]pyridazin-6-yl]-thiophene-2-carboxylic acid bis-(2-methoxy-ethyl)-amide] were, in that order, 8 nM and 0.2 nM.
For `O=C(NCCN1CCOCC1)c1ccc(-c2ccc3nnc(Cc4ccc5c(c4)CCO5)n3n2)s1` [Example 52, 5-[3-(2,3-Dihydro-benzofuran-5-ylmethyl)-[1,2,4]triazolo[4,3-b]pyridazin-6-yl]-thiophene-2-carboxylic acid (2-morpholin-4-yl-ethyl)-amide], the IC50 at c-Met [1] came out at 40 nM; on c-Met [2], 3 nM.
For `CC(C)CCNC(=O)c1ccc(-c2ccc3nnc(Cc4ccc5c(c4)CCO5)n3n2)s1` [Example 53, 5-[3-(2,3-Dihydro-benzofuran-5-ylmethyl)-[1,2,4]triazolo[4,3-b]pyridazin-6-yl]-thiophene-2-carboxylic acid (3-methyl-butyl)-amide], the IC50 on c-Met [1] came to 35 nM; at c-Met [2], 4 nM.
With `CC(C)N1CCN(C(=O)c2ccc(-c3ccc4nnc(Cc5ccc6ncccc6c5)n4n3)s2)CC1` [Example 55, (4-Isopropyl-piperazin-1-yl)-[5-(3-quinolin-6-ylmethyl-[1,2,4]triazolo[4,3-b]pyridazin-6-yl)-thiophen-2-yl]-methanone], the IC50 at c-Met [1] and at c-Met [2] was 1 nM throughout.
Take `CS(=O)(=O)N1CCN(C(=O)c2ccc(-c3ccc4nnc(Cc5ccc6ncccc6c5)n4n3)s2)CC1` [Example 56, (4-Methanesulfonyl-piperazin-1-yl)-[5-(3-quinolin-6-ylmethyl-[1,2,4]triazolo[4,3-b]pyridazin-6-yl)-thiophen-2-yl]-methanone]: the IC50 on c-Met [1] came to 23 nM; on c-Met [2], 0.9 nM.
As for `COc1ccc(C(F)(F)c2nnc3ccc(-c4cccs4)nn23)cc1` [Example 58, 3-[Difluoro-(4-methoxy-phenyl)-methyl]-6-thiophen-2-yl-[1,2,4]triazolo[4,3-b]pyridazine], the values for the IC50 on c-Met [1] and at c-Met [2] were 314 nM and 95 nM, respectively.
For `FC(F)(c1ccc2ncccc2c1)c1nnc2ccc(-c3cccnc3)nn12` [Example 59, 6-[Difluoro-(6-pyridin-3-yl-[1,2,4]triazolo[4,3-b]pyridazin-3-yl)-methyl]-quinoline], the IC50 on c-Met [1] stood at 8 nM; at c-Met [2] it was 3 nM.
As for `Cn1cc(-c2ccc3nnc(Cc4ccc5c(c4)CCO5)n3n2)cn1` [Example 62, 3-(2,3-Dihydro-benzofuran-5-ylmethyl)-6-(1-methyl-1H-pyrazol-4-yl)-[1,2,4]triazolo[4,3-b]pyridazine], the IC50 on c-Met [1] is 270 nM; on c-Met [2], 20 nM.
With `c1cnc2ccc(Cc3nnc4ccc(-c5cncnc5)nn34)cc2c1` [Example 64, 6-(6-Pyrimidin-5-yl-[1,2,4]triazolo[4,3-b]pyridazin-3-ylmethyl)-quinoline], the IC50 on c-Met [1] amounted to 170 nM; at c-Met [2], 17 nM.
On to `c1cnc2ccc(Cc3nnc4ccc(-c5cnc6ccccc6c5)nn34)cc2c1` [Example 65, 6-(6-Quinolin-3-yl-[1,2,4]triazolo[4,3-b]pyridazin-3-ylmethyl)-quinoline], for which the IC50 at c-Met [1] stood at 2 nM; on c-Met [2], 0.3 nM.
The like results for `FC(F)(c1ccc2ncccc2c1)c1nnc2ccc(-c3cnc4ccccc4c3)nn12` [Example 66, 6-[Difluoro-(6-quinolin-3-yl-[1,2,4]triazolo[4,3-b]pyridazin-3-yl)-methyl]-quinoline] were, in that order, 5 nM and 0.9 nM.
As to `COc1ccc(Cn2cnc3ccc(Cc4nnc5ccc(-c6cccnc6)nn45)cc3c2=O)cc1` [Example 68, 3-(4-Methoxy-benzyl)-6-(6-pyridin-3-yl-[1,2,4]triazolo[4,3-b]pyridazin-3-ylmethyl)-3H quinazolin-4-one], the IC50 was determined as 30 nM on c-Met [1] and 2 nM on c-Met [2].
`O=c1[nH]cnc2ccc(Cc3nnc4ccc(-c5cccnc5)nn34)cc12` [Example 69, 6-(6-Pyridin-3-yl-[1,2,4]triazolo[4,3-b]pyridazin-3-ylmethyl)-3H-quinazolin-4-one]: the IC50 was greater than 1000 nM at c-Met [1] and 17 nM on c-Met [2].
Take `Cn1cc(-c2ccc3nnc(Cc4ccc5ncncc5c4)n3n2)cn1` [Example 70, 6-[6-(1-Methyl-1H-pyrazol-4-yl)-[1,2,4]triazolo[4,3-b]pyridazin-3-ylmethyl]-quinazoline]: the IC50 at c-Met [1] came out at 140 nM; on c-Met [2], 25 nM.
On to `Cn1cc(-c2ccc3nnc(Cc4ccc5nccnc5c4)n3n2)cn1` [Example 71, 6-[6-(1-Methyl-1H-pyrazol-4-yl)-[1,2,4]triazolo[4,3-b]pyridazin-3-ylmethyl]-quinoxaline], for which the IC50 on c-Met [1] turned out to be 99 nM; at c-Met [2] it was 20 nM.
As for `c1cnc2ccc(Cc3nnc4ccc(-c5cc6ccccc6s5)nn34)cc2c1` [Example 72, 6-(6-Benzo[b]thiophen-2-yl-[1,2,4]triazolo[4,3-b]pyridazin-3-ylmethyl)-quinoline], the figures for the IC50 on c-Met [1] and at c-Met [2] were 0.2 nM and 0.3 nM, respectively.
As to `[O-][n+]1cccc2cc(Cc3nnc4ccc(-c5cn[nH]c5)nn34)ccc21` [Example 73, 6-[6-(1H-Pyrazol-4-yl)-[1,2,4]triazolo[4,3-b]pyridazin-3-ylmethyl]-quinolin-1-ol], the IC50 at c-Met [1] is 0.5 nM; on c-Met [2], 0.1 nM.
The like results for `OCCCn1cc(-c2ccc3nnc(Cc4ccc5ncccc5c4)n3n2)cn1` [Example 75, 3-[4(3-Quinolin-6-ylmethyl-[1,2,4]triazolo[4,3-b]pyridazin-6-yl)-pyrazol-1-yl]-propan-1-ol] were, in that order, 60 nM and 0.8 nM.
In the case of `c1cnc2ccc(Cc3nnc4ccc(-c5cn[nH]c5)nn34)cc2c1` [Example 76, 6-[6-(1H-Pyrazol-4-yl)-[1,2,4]triazolo[4,3-b]pyridazin-3-ylmethyl]-quinoline], the IC50 was determined as 180 nM at c-Met [1] and 4 nM on c-Met [2].
For the compound `Clc1ccc(-c2ccc3nnc(Cc4ccc5ncccc5c4)n3n2)s1` [Example 77], the results for the IC50 on c-Met [1] and on c-Met [2] were 2 nM and 1.5 nM, respectively.
For `Cc1nc2ccc(-c3ccc4nnc(Cc5ccc6ncccc6c5)n4n3)cc2[nH]1` [Example 79, 6-[6-(2-Methyl-3H-benzoimidazol-5-yl)-[1,2,4]triazolo[4,3-b]pyridazin-3-ylmethyl]-quinoline], the values for the IC50 at c-Met [1] and on c-Met [2] were 3300 nM and 30 nM, respectively.
